Data as given in US20080076718A1, “Novel Proteasome Modulators” (priority 2003, published 2008).
Read-outs that look alike come from different tables or passages of the source. One block for each compound: values may come before it. Square brackets hold non-standard residues; d marks the D form. Ends that are not written are not given here. Peptide text beside a SMILES is read from it. * marks the point of attachment. Biotin = O=C1N[C@H]2[C@H](CS[C@H]2CCCCC(=O)*)N1; Bpa = N[C@@H](Cc1ccc(C(=O)c2ccccc2)cc1)C(=O)O; Decanoyl = CCCCCCCCCC(=O)*; Octanoyl = CCCCCCCC(=O)*; Ava = NCCCCC(=O)O

Legend:
Assay type in all cases: biochemical, yeast (Saccharomyces cerevisae)
[1] = target: T1, yeast activated 20S proteasome (CT-L activity) (Saccharomyces cerevisiae, UniProt P23724+P30656); assay: Inhibition of the CT-L (chymotrypsin-like) peptidase activity of the activated 20S proteasome, substrate Suc-LLVY-amc; conditions: for Increase of the inhibitory capacity compared with the unmodified peptide (factor): lipopeptide versus corresponding peptide, CT-L activity of activated 20S proteasome; for Inhibitory effect of the lipopeptides on the CT-L activity: yeast activated 20S proteasome, after treatment with 35 μM of lipopeptide (17.5 μM for C18/TVTYKF)
T1 construct: The yeast (Saccharomyces cerevisae) 26S and 20S proteasomes were purified according to the protocol described in; made in house; host or cells: Saccharomyces cerevisiae (native complex purified from yeast by the cited Leggett et al. 2002 protocol)
Experimental: (§1) The yeast (Saccharomyces cerevisae) 26S and 20S proteasomes were purified according to the protocol described in: LEGGETT et al. (2002) Molecular Cell, 10, pp 495-507.
(§2) The peptidase activities were determined using the fluorogenic substrates Suc-LLVY-amc (CT-L), Z-LLE-βNA (PA) and Boc-LRR-amc (T-L), provided by the company Bachem (Voisins-le-Bretonneux, France).
(§3) The peptidase activities of the yeast and Xenopus 26S proteasomes and those of the yeast 20S proteasome, latent and activated, were determined under the conditions described in Table II.
(§4) The compounds studied are solubilized in the buffer (peptides, pseudopeptides) or in DMSO (lipopeptides, photoactivatable peptides). The enzyme is preincubated (15 min at 30° C.) in the corresponding buffer (Table II), in the presence of the inhibitor. For the cases where the inhibitor is solubilized in DMSO (lipopeptides, photoactivatable peptides), the control without inhibitor contains an amount of DMSO identical to that of the assays with inhibitor (3.5% v/v). The reaction is triggered by adding the substrate. It is continuously monitored for 30 min at 30° C. The initial rates of the assays with inhibitors (calculated from the experimental points) are compared with those of the controls. The results presented were obtained by calculating the mean of at least two independent assays. The variability is less than 10%.
(§5) The IC50 parameter corresponds to the concentration of inhibitor that results in a 50% loss of enzymatic activity.
(§6) The enzyme is preincubated in the presence of increasing concentrations of inhibitor. The reaction is triggered by adding the substrate (see paragraph “Detection and study of the inhibitory effects”). The percentage inhibition is calculated from equation 1.
(§7) The experimental points describe the evolution of the inhibitory effect of the compound studied as a function of its concentration. As a general rule, they fit with the curve described by equation 2 in which [I] is the concentration of inhibitor
The mechanism of inhibition is determined by tracing the curve of the evolution of the V0/Vi ratio as a function of the concentration of inhibitor.

[2] = target: T2, activated 20S proteasome (PA activity) (Saccharomyces cerevisiae, UniProt P25043+P38624); assay: Inhibition of the post-acid (PA) peptidase activity of the activated 20S proteasome, substrate Z-LLE-βNA
T2 construct: The yeast (Saccharomyces cerevisae) 26S and 20S proteasomes were purified according to the protocol described in; made in house; host or cells: Saccharomyces cerevisiae (native complex purified from yeast by the cited Leggett et al. 2002 protocol)
Experimental: as §1, §2, §3, §4, §5, §6, §7

[3] = target: T3, latent 20S proteasome (CT-L activity) (Saccharomyces cerevisiae, UniProt P23724+P30656); assay: Activating effect on the CT-L activity of the latent 20S proteasome (activation factor fa); set-up: key: fa = initial rate with compound / initial rate of control (Va/V0); conditions: fa = Va/V0, concentration not given
T3 construct: The yeast (Saccharomyces cerevisae) 26S and 20S proteasomes were purified according to the protocol described in; made in house; host or cells: Saccharomyces cerevisiae (native complex purified from yeast by the cited Leggett et al. 2002 protocol)
Experimental: as §1, §2, §3
(§8) The compounds studied are solubilized in the buffer or in DMSO. The enzyme is preincubated (15 minutes at 30° C.) in the corresponding buffer (Table II), in the presence of the molecule to be tested. When the molecule is solubilized in DMSO, the control (no addition molecule to be tested) contains an amount of DMSO identical to that of the assays(3.5% v/v). The reaction is triggered by adding the substrate. It is continuously monitored for 30 minutes at 30° C. The results presented were obtained by calculating the mean of at least two independent assays. An activation is characterized by an activity, after treatment with the molecule tested, of greater than 100%. The variability is less than 10%. The results are expressed by means of an activation factor fa equal to the ratio of the initial rate Va in the presence of the compound tested to the initial rate of the control V0.

[4] = target: T4, latent 20S proteasome (T-L activity) (Saccharomyces cerevisiae, UniProt P25043+P25451); assay: Activating effect on the T-L activity of the latent 20S proteasome (activation factor fa); conditions: fa = Va/V0, concentration not given
T4 construct: The yeast (Saccharomyces cerevisae) 26S and 20S proteasomes were purified according to the protocol described in; made in house; host or cells: Saccharomyces cerevisiae (native complex purified from yeast by the cited Leggett et al. 2002 protocol)
Experimental: as §1, §2, §3, §8

[5] = activated 20S proteasome, read-out: CT-L activity: IC50

Compound: CCCCCCCC(=O)N[C@H](C(=O)N[C@H](C(=O)N[C@H](C(=O)N[C@@H](Cc1ccc(O)cc1)C(=O)N[C@@H](CCCCN)C(=O)N[C@@H](Cc1ccccc1)C(=O)O)[C@@H](C)O)C(C)C)[C@@H](C)O [C8/TVTYKF, CH3—(CH2)6—CO-TVTYKF] (Octanoyl-TVTYKF-OH; C-terminus assumed)
IC50 [1, 5]: ~35 µM
Increase of the inhibitory capacity compared with the unmodified peptide (factor) [1]: 17
Inhibitory effect of the lipopeptides on the CT-L activity [1]: 50%

Compound: CCCCCCCCCC(=O)N[C@H](C(=O)N[C@H](C(=O)N[C@H](C(=O)N[C@@H](Cc1ccccc1)C(=O)N[C@@H](CCCCN)C(=O)N[C@@H](Cc1ccccc1)C(=O)O)[C@@H](C)O)C(C)C)[C@@H](C)O [C10/TVTFKF, CH3—(CH2)8—CO-TVTFKF] (Decanoyl-TVTFKF-OH; C-terminus assumed)
IC50 [1, 5]: ~35 µM
Increase of the inhibitory capacity compared with the unmodified peptide (factor) [1]: 6.5
Inhibitory effect of the lipopeptides on the CT-L activity [1]: 42%

Compound: CC(C)C[C@@H](CNCC(=O)N1CCC[C@H]1C(=O)N[C@@H](CO)C(=O)O)NC(=O)[C@H](CC(N)=O)NC(=O)[C@@H](N)[C@@H](C)O [Pseudopeptide 1, TNL-ψ[CH2—NH]-GPS]
Mechanism of inhibition (kinetic analysis, V0/Vi versus inhibitor concentration) ([1]; activated 20S proteasome): reacts with the catalytic sites and the regulatory site(s)
IC50 ([1]; estimated values, activity type not named at the place, peptide tested under conditions where its hydrolysis is negligible, read-out: IC50 (activated 20S proteasome inhibitor)): 380 µM
inhibition at 500 µM ([2]; inhibitor 500 μM): 63%

IC50 ([1]; enzyme form and activity not stated at the place, read-out: IC50): 32 µM
Compound: CC(C)[C@H](NC(=O)[C@@H](NC(=O)CCCCNC(=O)CCCC[C@@H]1SC[C@@H]2NC(=O)N[C@@H]21)[C@@H](C)O)C(=O)N[C@H](C(=O)N[C@@H](Cc1ccc(C(=O)c2ccccc2)cc1)C(=O)N[C@@H](CCCCN)C(=O)N[C@@H](Cc1ccccc1)C(=O)O)[C@@H](C)O [Pseudopeptide 3, Biot-Ava-TVT-Bpa-KF] ({Biotin-Ava}-TVT[Bpa]KF-OH; C-terminus assumed)

Compound: Ac-TNL-ψ[CH2—NH]-GPS [Pseudopeptide 2]
Effectiveness relative to pseudopeptide 1 ([1]; activated 20S proteasome): half as effective as 1
Inhibition of the post-acid activity PA ([2]; inhibitor 1 mM): 28%

Compound: CH3—(CH2)12—CO-TVTYKF [C14/TVTYKF]
Inhibitory effect of the lipopeptides on the CT-L activity [1]: 0%
fa CT-L activity [3]: 2

Compound: CH3—(CH2)14—CO-TITFDY [C16/TITFDY]
Inhibitory effect of the lipopeptides on the CT-L activity [1]: 20%
fa CT-L activity [3]: 3

Compound: CH3—(CH2)14—CO-TVTYKF
fa CT-L activity [3]: 2

Compound: CH3—(CH2)16—CO-TITFDY [C18/TITFDY]
fa T-L activity [4]: 1.2
Inhibitory effect of the lipopeptides on the CT-L activity [1]: 34%
fa CT-L activity [3]: 6

Compound: CH3—(CH2)16—CO-TVTYKF
fa CT-L activity [3]: 3.2

Compound: TITFDY [reference compound]
fa T-L activity [4]: 3
fa CT-L activity [3]: 5

Compound: TITYDF
fa T-L activity [4]: 2.5

Compound: TITYEY [reference compound]
fa CT-L activity [3]: 2

Compound: TITYKF [TITYKF, reference compound]
Mechanism of inhibition (kinetic analysis, V0/Vi versus inhibitor concentration) ([1]; activated 20S proteasome): parabolic kinetics
IC50 [1, 5]: 260 µM
IC50 [2]: 336 µM

Compound: TVTFKF [TVTFKF, reference compound]
fa T-L activity [4]: 1.7
Mechanism of inhibition (kinetic analysis, V0/Vi versus inhibitor concentration) ([1]; activated 20S proteasome): parabolic kinetics
IC50 [1, 5]: 229 µM
fa CT-L activity [3]: 2.3
IC50 [2]: 210 µM
